# Laboratory results taken from US20220008419A1, “PHARMACEUTICAL COMPOSITION FOR TREATING DIFFUSE-TYPE GASTRIC CANCER” (KANAZAWA MEDICAL UNIVERSITY, priority 2018, published 2022).
# How the values were obtained:
# ErbB4 (HER4) = ErbB4 (HER4) (Homo sapiens, UniProt Q15303); conditions: reported in literature; cited from earlier work
# EGFR (ErbB1) = EGFR (ErbB1) (Homo sapiens, UniProt P00533); conditions: reported in literature; cited from earlier work
# ErbB2 (HER2) = ErbB2 (HER2) (Homo sapiens, UniProt P04626); conditions: reported in literature; cited from earlier work
# Chain of ErbB2 (HER2) (P04626 23-1255): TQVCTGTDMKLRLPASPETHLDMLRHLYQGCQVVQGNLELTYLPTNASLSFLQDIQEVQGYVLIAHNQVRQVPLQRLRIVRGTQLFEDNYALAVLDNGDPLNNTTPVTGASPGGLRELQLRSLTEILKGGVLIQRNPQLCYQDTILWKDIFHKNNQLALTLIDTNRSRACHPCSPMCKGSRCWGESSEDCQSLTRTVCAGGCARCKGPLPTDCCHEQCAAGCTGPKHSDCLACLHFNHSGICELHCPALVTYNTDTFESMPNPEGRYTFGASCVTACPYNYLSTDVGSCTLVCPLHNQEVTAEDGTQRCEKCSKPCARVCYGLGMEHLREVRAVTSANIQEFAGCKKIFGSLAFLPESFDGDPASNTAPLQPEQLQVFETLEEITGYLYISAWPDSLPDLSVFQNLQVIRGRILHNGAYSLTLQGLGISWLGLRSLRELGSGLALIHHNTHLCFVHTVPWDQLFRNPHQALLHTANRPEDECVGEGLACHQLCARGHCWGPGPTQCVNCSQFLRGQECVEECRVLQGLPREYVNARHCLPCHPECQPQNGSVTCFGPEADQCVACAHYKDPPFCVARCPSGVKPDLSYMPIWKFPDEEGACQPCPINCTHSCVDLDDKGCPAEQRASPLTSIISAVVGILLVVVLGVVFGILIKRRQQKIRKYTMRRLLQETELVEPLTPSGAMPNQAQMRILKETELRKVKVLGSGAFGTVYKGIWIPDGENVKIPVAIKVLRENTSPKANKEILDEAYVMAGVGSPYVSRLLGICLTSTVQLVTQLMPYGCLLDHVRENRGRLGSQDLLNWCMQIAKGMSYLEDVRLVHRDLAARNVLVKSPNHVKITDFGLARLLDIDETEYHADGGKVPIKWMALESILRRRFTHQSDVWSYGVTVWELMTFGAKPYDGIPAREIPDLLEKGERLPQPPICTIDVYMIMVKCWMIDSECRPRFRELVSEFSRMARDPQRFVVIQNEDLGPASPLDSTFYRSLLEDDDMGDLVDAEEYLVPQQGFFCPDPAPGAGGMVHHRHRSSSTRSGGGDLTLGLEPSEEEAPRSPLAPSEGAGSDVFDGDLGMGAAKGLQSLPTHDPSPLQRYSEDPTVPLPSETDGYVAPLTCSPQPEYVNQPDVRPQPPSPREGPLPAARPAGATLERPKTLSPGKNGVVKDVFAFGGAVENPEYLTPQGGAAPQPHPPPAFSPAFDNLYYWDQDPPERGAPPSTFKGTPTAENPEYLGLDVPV
# [1] = tested on: EGFR-overexpressing tumor xenograft; conditions: Hua Xie et al.; cited from earlier work
# MKN45 = assay: In vitro cell growth inhibition (CCK-8), cMet gene-amplified gastric cancer cell line MKN45; type: cell-based, human; conditions: 72 hours
# Experimental: (§1) Five types of cell lines (NUGC4, GCIY, MKN7, GCR1 and MKN45) were subcultured in the RPMI 1640 culture medium containing 10% concentration of fetal bovine serum, 100 units/mL concentration of penicillin, and 100 units/mL concentration of antibiotic streptomycin, and used in the following experiments. The cells were periodically examined for the presence of mycoplasma infection by using MycoAlert Mycoplasma Detection Kit (Lonza). Cell growth was measured by using Cell Counting Kit-8 (CCK-8) (Dojin Kagaku Kenkyusho, Kumamoto, Japan) (Ishiyama M., et al., […], 44; 1299:1997). The cells were inoculated at a density of 5×10^4 cells/mL in a volume of 100 μL per well, and incubated at 37° C. for 24 hours in an incubator. Then, any one of three types of cell growth factors, amphiregulin (AP, 100 ng/mL, R&D Systems, Minneapolis, Minn.), heparin-binding EGF-like growth factor (HB-EGF), and hepatocyte growth factor (HGF, 50 ng/mL, R&D Systems), and any one of two types of the EGFR inhibitors, AZ5104 (0.001 to 10 μM) and AST1306 (0.001 to 10 μM)), were added to each well, and the cells were further incubated at 37° C. for 72 hours in an incubator. In addition, to the control wells, any one of the three types of cell growth factors was added, but not the EGFR inhibitor. […] Absorbance was measured at a wavelength of 450 nm by using a microplate reader (BIO-RAD Laboratories, Inc.). […]
# MKN7 = assay: In vitro cell growth inhibition (CCK-8), non-diffuse gastric cancer cell line MKN7; type: cell-based, human; conditions: HGF 50 ng/mL, 72 hours
# Experimental: as §1
# NUGC4 = assay: In vitro cell growth inhibition (CCK-8), diffuse gastric cancer cell line NUGC4; type: cell-based, human; conditions: inhibitor 0.001 to 10 μM, 72 hours; for HGF-induced cell growth of NUGC4: HGF 50 ng/mL; for amphiregulin-induced cell growth of NUGC4: amphiregulin 100 ng/mL
# Experimental: (§2) Five types of cell lines (NUGC4, GCIY, MKN7, GCR1 and MKN45) were subcultured in the RPMI 1640 culture medium containing 10% concentration of fetal bovine serum, 100 units/mL concentration of penicillin, and 100 units/mL concentration of antibiotic streptomycin, and used in the following experiments. The cells were periodically examined for the presence of mycoplasma infection by using MycoAlert Mycoplasma Detection Kit (Lonza). Cell growth was measured by using Cell Counting Kit-8 (CCK-8) (Dojin Kagaku Kenkyusho, Kumamoto, Japan) (Ishiyama M., et al., […], 44; 1299:1997). The cells were inoculated at a density of 5×10^4 cells/mL in a volume of 100 μL per well, and incubated at 37° C. for 24 hours in an incubator. Then, any one of three types of cell growth factors, amphiregulin (AP, 100 ng/mL, R&D Systems, Minneapolis, Minn.), heparin-binding EGF-like growth factor (HB-EGF), and hepatocyte growth factor (HGF, 50 ng/mL, R&D Systems), and any one of two types of the EGFR inhibitors, AZ5104 (0.001 to 10 μM) and AST1306 (0.001 to 10 μM)), were added to each well, and the cells were further incubated at 37° C. for 72 hours in an incubator. In addition, to the control wells, any one of the three types of cell growth factors was added, but not the EGFR inhibitor. Further, 10 μL of a WST-8 solution was added to each well, and the cells were cultured at 37° C. for 4 hours. Absorbance was measured at a wavelength of 450 nm by using a microplate reader (BIO-RAD Laboratories, Inc.). All the experiments were performed in triplicate, that is, the same experiment was repeated three times.
# GCIY = assay: In vitro cell growth inhibition (CCK-8), diffuse gastric cancer cell line GCIY; type: cell-based, human; conditions: 72 hours; for HB-EGF-induced cell growth of GCIY / HGF-induced cell growth of GCIY / amphiregulin-induced cell growth of GCIY: inhibitor 0.001 to 10 μM; for HGF-induced cell growth of GCIY: HGF 50 ng/mL; for amphiregulin-induced cell growth of GCIY: amphiregulin 100 ng/mL; for baseline cell growth of GCIY: no growth factor added
# Experimental: as §2
# [2] = tested on: ErbB2-overexpressing cells; conditions: Hua Xie et al.; cited from earlier work
# [3] = tested on: ErbB2-overexpressing adenocarcinoma xenograft; conditions: Hua Xie et al.; cited from earlier work
# [4] = tested on: FVB-2/Nneu transgenic breast cancer; conditions: Hua Xie et al.; cited from earlier work
# GCR-1 = assay: In vitro cell growth inhibition (CCK-8), non-diffuse gastric cancer cell line GCR-1; type: cell-based, human; conditions: HGF 50 ng/mL, 72 hours
# Experimental: as §1
# cancer patients = conditions: among 55 evaluable cancer patients, phase I; cited from earlier work
# [5] = tested on: normal human gastric fibroblasts; assay: In vitro growth inhibition test for fibroblasts (cell count); type: cell-based; conditions: HB-EGF 10 ng/mL, EGF receptor inhibitor 1 μM, 96 hours
# [6] = tested on: non-small cell lung cancer with EGFR EX20Ins mutation; conditions: Floc'h et al.; cited from earlier work
# mutant EGFR = conditions: reported in literature; cited from earlier work
# [7] = tested on: Diffuse gastric cancer cells (NUGC4 cells); assay: In vivo test: survival of mice intraperitoneally transplanted with NUGC4 cells; set-up: species or system Balb/c nu/nu mice; conditions: for mice alive 11 weeks after the gastric cancer cell transplantation / mice alive seven weeks after the gastric cancer cell transplantation: eight mice per therapy, treatment from day 21, AZ5104/osimertinib 10 mg/kg once a day oral, savolitinib 2.5 mg/kg once a day oral, antibody 40 mg/kg twice a week intraperitoneal; for t-test for numbers of mice alive 11 weeks after transplantation compared with the control group: p<0.05
# Experimental: The anti-VEGF receptor 2 antibody used was anti-mouse VEGF receptor 2 antibody DC101 (GeneTex).
# Diffuse gastric cancer cells (NUGC4 cells) were transplanted to Balb/c nu/nu mice (6 weeks old) by intraperitoneal administration of 2×10^6 of the cells in 200 μL of phosphate buffered saline (PBS) per mouse. On day 21 after the transplantation, ascites accumulation was confirmed, and treatment was started. The treatment was performed with the following eight kinds of therapies, and eight mice were used for each therapy.
# For the control group (vehicle control), only a solution not dissolving any drug was administered once a week. The administration was continued for 4 weeks, and then for another 4 weeks.
# Chain of EGFR (ErbB1) (P00533 25-1210): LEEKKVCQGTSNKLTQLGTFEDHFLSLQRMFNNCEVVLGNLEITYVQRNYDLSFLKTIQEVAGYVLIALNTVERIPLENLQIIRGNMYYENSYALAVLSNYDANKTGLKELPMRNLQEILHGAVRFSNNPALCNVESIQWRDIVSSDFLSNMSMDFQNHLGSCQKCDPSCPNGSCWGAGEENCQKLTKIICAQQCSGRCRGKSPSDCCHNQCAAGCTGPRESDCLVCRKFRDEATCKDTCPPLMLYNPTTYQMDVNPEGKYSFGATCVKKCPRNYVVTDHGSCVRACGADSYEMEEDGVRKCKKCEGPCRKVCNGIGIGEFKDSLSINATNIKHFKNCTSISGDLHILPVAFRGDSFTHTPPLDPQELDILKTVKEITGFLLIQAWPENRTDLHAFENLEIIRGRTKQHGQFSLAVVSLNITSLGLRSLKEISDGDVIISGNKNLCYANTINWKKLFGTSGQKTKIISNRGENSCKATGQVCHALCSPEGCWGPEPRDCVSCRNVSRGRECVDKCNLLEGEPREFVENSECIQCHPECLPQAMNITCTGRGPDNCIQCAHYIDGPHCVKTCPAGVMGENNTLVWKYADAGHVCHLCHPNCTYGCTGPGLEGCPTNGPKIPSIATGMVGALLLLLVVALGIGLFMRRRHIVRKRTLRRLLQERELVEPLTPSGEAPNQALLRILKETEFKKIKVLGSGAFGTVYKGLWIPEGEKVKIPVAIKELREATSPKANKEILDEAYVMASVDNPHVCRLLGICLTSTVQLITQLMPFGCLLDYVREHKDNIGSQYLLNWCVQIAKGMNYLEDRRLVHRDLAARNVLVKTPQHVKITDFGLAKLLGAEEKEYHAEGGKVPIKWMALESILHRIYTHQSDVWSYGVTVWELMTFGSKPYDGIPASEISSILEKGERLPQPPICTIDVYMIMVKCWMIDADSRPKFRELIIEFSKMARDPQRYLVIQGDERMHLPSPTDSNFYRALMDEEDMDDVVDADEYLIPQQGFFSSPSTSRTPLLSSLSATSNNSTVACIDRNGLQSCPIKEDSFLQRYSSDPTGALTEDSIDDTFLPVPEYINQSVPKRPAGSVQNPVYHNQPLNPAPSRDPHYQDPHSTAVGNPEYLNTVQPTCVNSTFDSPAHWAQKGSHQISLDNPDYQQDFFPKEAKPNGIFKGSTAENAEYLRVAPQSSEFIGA
# Chain of ErbB4 (HER4) (Q15303 26-1308): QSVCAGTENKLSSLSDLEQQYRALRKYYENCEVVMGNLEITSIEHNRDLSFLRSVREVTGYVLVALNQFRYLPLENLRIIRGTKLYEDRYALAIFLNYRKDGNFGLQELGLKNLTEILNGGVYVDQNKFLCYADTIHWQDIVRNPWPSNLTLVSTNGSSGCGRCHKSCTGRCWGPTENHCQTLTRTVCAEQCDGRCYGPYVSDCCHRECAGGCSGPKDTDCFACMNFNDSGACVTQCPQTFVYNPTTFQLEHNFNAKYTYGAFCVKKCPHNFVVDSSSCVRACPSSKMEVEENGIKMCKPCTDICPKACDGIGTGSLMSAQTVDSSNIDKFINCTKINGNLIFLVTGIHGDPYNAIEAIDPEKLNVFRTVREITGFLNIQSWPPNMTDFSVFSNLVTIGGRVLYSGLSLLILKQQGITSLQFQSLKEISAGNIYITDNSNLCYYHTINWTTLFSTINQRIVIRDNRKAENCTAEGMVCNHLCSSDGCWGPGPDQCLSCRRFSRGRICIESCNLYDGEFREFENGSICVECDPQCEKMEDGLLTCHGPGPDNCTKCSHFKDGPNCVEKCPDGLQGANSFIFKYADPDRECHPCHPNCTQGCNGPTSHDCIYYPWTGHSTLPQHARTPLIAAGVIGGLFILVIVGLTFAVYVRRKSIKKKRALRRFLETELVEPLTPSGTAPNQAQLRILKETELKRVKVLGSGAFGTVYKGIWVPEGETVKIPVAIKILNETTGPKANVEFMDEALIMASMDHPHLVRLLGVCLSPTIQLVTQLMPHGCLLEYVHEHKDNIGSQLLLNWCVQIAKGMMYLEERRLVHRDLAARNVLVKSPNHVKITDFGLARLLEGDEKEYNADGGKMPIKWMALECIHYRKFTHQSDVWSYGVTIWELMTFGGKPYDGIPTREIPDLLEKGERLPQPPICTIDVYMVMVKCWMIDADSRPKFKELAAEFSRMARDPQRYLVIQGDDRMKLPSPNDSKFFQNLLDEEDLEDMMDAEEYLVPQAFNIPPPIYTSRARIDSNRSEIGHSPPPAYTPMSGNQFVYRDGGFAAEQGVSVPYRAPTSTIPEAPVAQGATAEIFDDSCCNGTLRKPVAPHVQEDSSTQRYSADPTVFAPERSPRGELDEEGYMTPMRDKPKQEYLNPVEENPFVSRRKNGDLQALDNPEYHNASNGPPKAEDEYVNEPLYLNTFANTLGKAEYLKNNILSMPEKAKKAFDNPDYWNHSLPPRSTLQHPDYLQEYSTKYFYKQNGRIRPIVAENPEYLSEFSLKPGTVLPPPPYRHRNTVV
smiles,measurement,setting,value
"Cc1c(NC(=O)OC[C@@H]2COCCN2)cn2ncnc(Nc3ccc4c(cnn4Cc4cccc(F)c4)c3)c12 [AC480, (S)-morpholin-3-ylmethyl 4-(1-(3-fluorobenzyl)-1H-indazol-5-ylamino)-5-methylpyrrolo[1,2-f][1,2,4]triazine-6-carbamate]",inhibition of ErbB4 (HER4),ErbB4 (HER4),inhibit
same,inhibition of EGFR (ErbB1),EGFR (ErbB1),inhibit
same,inhibition of ErbB2 (HER2),ErbB2 (HER2),inhibit
"CCN1CCN(Cc2ccc(-c3cc4c(N[C@H](C)c5ccccc5)ncnc4[nH]3)cc2)CC1 [AEE788, (R)-6-(4-((4-ethylpiperazin-1-yl)methyl)phenyl)-N-(1-phenylethyl)-7H-pyrrolo[2,3-d]pyrimidin-4-amine]",inhibition of ErbB4 (HER4),ErbB4 (HER4),inhibit
same,inhibition of EGFR (ErbB1),EGFR (ErbB1),inhibit
same,inhibition of ErbB2 (HER2),ErbB2 (HER2),inhibit
"C=CC(=O)Nc1ccc2ncnc(Nc3ccc(OCc4cccc(F)c4)c(Cl)c3)c2c1.Cc1ccc(S(=O)(=O)O)cc1 [AST1306, 2-propenamide, N-[4-[[3-chloro-4-[(3-fluorophenyl)methoxy]phenyl]amino]-6-quinazolinyl]-, 4-methylbenzenesulfonate (1:1)]",inhibition of ErbB4 (HER4),ErbB4 (HER4),irreversible inhibitor
same,tumor growth in EGFR-overexpressing tumor xenografted mice,[1],weakly inhibited
same,concentration at which cell growth of MKN45 was inhibited,MKN45,≥ 1 µM
same,concentration at which HGF-induced cell growth of MKN7 was inhibited,MKN7,≥ 0.3 µM
same,HB-EGF-induced cell growth of NUGC4,NUGC4,inhibited
same,HGF-induced cell growth of NUGC4,NUGC4,inhibited
same,amphiregulin-induced cell growth of NUGC4,NUGC4,inhibited
same,HB-EGF-induced cell growth of GCIY,GCIY,inhibited
same,HGF-induced cell growth of GCIY,GCIY,inhibited
same,amphiregulin-induced cell growth of GCIY,GCIY,inhibited
same,baseline cell growth of GCIY,GCIY,inhibited
same,growth inhibitory effect in ErbB2-overexpressing cells,[2],more potent
same,inhibition of EGFR (ErbB1),EGFR (ErbB1),irreversible inhibitor
same,tumor growth in ErbB2-overexpressing adenocarcinoma xenografted mice,[3],potently inhibited
same,tumor growth in FVB-2/Nneu transgenic breast cancer mice,[4],potently inhibited
same,concentration at which HGF-induced cell growth of GCR-1 was inhibited,GCR-1,≥ 0.3 µM
same,inhibition of ErbB2 (HER2),ErbB2 (HER2),irreversible inhibitor
same,partial remission,cancer patients,7 patients
same,stability (stability over 6 months or longer),cancer patients,7 patients
same,HB-EGF-induced cell growth of normal human gastric fibroblasts,[5],inhibited
"C=CC(=O)Nc1cc(Nc2nccc(-c3c[nH]c4ccccc34)n2)c(OC)cc1N(C)CCN(C)C [AZ5104, N-(5-(4-(1H-indol-3-yl)pyrimidin-2-ylamino)-2-((2-(dimethylamino)ethyl)(methyl)amino)-4-methoxyphenyl)acrylamide]",inhibition of ErbB4 (HER4),ErbB4 (HER4),inhibitory activities
same,concentration at which cell growth of MKN45 was inhibited,MKN45,≥ 1 µM
same,concentration at which HGF-induced cell growth of MKN7 was inhibited,MKN7,≥ 0.3 µM
same,tumor growth in mice transplanted with non-small cell lung cancer with EGFR EX20Ins mutation,[6],inhibit
same,HB-EGF-induced cell growth of NUGC4,NUGC4,inhibited
same,HGF-induced cell growth of NUGC4,NUGC4,inhibited
same,amphiregulin-induced cell growth of NUGC4,NUGC4,inhibited
same,inhibitory activity against mutant EGFR,mutant EGFR,inhibitory activity
same,HB-EGF-induced cell growth of GCIY,GCIY,inhibited
same,HGF-induced cell growth of GCIY,GCIY,inhibited
same,amphiregulin-induced cell growth of GCIY,GCIY,inhibited
same,baseline cell growth of GCIY,GCIY,inhibited
same,inhibition of EGFR (ErbB1),EGFR (ErbB1),inhibitory activities
same,concentration at which HGF-induced cell growth of GCR-1 was inhibited,GCR-1,≥ 0.3 µM
same,mice alive 11 weeks after the gastric cancer cell transplantation,[7],all died
same,mice alive seven weeks after the gastric cancer cell transplantation,[7],one
same,t-test for numbers of mice alive 11 weeks after transplantation compared with the control group,[7],significant differences
same,inhibition of ErbB2 (HER2),ErbB2 (HER2),inhibitory activities
same,HB-EGF-induced cell growth of normal human gastric fibroblasts,[5],inhibited
"CC(C)(O)CC(=O)NCCn1ccc2ncnc(Nc3ccc(Oc4cccc(C(F)(F)F)c4)c(Cl)c3)c21 [TAK-285, N-(2-(4-(3-chloro-4-(3-(trifluoromethyl)phenoxy)phenylamino)-5H-pyrrolo[3,2-d]pyrimidin-5-yl)ethyl)-3-hydroxy-3-methylbutanamide]",inhibition of ErbB4 (HER4),ErbB4 (HER4),inhibit
same,inhibition of ErbB2 (HER2),ErbB2 (HER2),inhibit
COc1cc2ncnc(Nc3ccc(F)c(Cl)c3)c2cc1NC(=O)/C=C/CN1CCCCC1 [dacomitinib],inhibition of ErbB4 (HER4),ErbB4 (HER4),inhibit
same,inhibition of EGFR (ErbB1),EGFR (ErbB1),inhibit
same,inhibition of ErbB2 (HER2),ErbB2 (HER2),inhibit
CS(=O)(=O)CCNCc1ccc(-c2ccc3ncnc(Nc4ccc(OCc5cccc(F)c5)c(Cl)c4)c3c2)o1 [lapatinib],inhibition of ErbB4 (HER4),ErbB4 (HER4),inhibit
same,inhibition of ErbB2 (HER2),ErbB2 (HER2),inhibit
"C=CC(=O)Nc1cc(Nc2nccc(-c3cn(C)c4ccccc34)n2)c(OC)cc1N(C)CCN(C)C [osimertinib, 2-propenamide, N-[2-[[2-(dimethylamino)ethyl]methylamino]-4-methoxy-5-[[4-(1-methyl-1H-indol-3-yl)-2-pyrimidinyl]amino]phenyl]-]",inhibition of ErbB4 (HER4),ErbB4 (HER4),inhibitory activities
same,tumor growth in mice transplanted with non-small cell lung cancer with EGFR EX20Ins mutation,[6],inhibit
same,inhibitory activity against mutant EGFR,mutant EGFR,inhibitory activity
same,mice alive 11 weeks after the gastric cancer cell transplantation,[7],2 mice
same,t-test for numbers of mice alive 11 weeks after transplantation compared with the control group,[7],significant differences
same,inhibition of ErbB2 (HER2),ErbB2 (HER2),inhibitory activities
"C=CC(=O)N1CCC(Oc2cc3c(Nc4ccc(Cl)c(Cl)c4F)ncnc3cc2OC)CC1 [poziotinib, 1-(4-(4-(3,4-dichloro-2-fluorophenylamino)-7-methoxyquinazolin-6-yloxy)piperidin-1-yl)prop-2-en-1-one]",inhibition of ErbB4 (HER4),ErbB4 (HER4),inhibit
same,inhibition of EGFR (ErbB1),EGFR (ErbB1),inhibit
same,inhibition of ErbB2 (HER2),ErbB2 (HER2),inhibit
C[C@@H](c1ccc2nccn2c1)n1nnc2ncc(-c3cnn(C)c3)nc21 [savolitinib],mice alive 11 weeks after the gastric cancer cell transplantation,[7],all died
same,mice alive seven weeks after the gastric cancer cell transplantation,[7],2 mice
same,t-test for numbers of mice alive 11 weeks after transplantation compared with the control group,[7],no significant difference
